Test results taken from US6911418B2, “Method for treating a subterranean formation” (Schlumberger Technology Corporation, priority 2001, dated 2005).

Assay: pH resulting from the aqueous mixture
Assay type: physicochemical
Conditions: 20 percent tetrasodium, 28 percent dipotassium, 21 percent diammonium mixtures
Experimental: Calcium carbonate was stirred into each mixture until saturation was achieved. The amount of calcium carbonate dissolution was then determined by inductively coupled plasma.

Substance: tetrasodium ethylenediamine tetraacetate
- pH of aqueous mixture: about 12
